Measured values as given in patent US20200216439A1, “HETERO-1,5,6,7-TETRAHYDRO-4H-INDOL-4-ONES” (BAYER PHARMA AKTIENGESELLSCHAFT, priority 2015, published 2020).

Target: T1, catalytic domain of human Bub1 (amino acids 704-1085) (Homo sapiens, UniProt O43683)
T1 construct: catalytic domain of human Bub1 (amino acids 704-1085); His6 (N); made in house; host or cells: Hi5 insect cells
Assay: Bub1 kinase assay (TR-FRET)
Type: biochemical
Settings: TR-FRET; ATP 10 μM, peptide substrate 1 μM; 60 min at 22° C.; average or median if tested more than once; read-out: Inhibition of Bub1 kinase IC50
Outline: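 Human Bub1 catalytic domain (704-1085, His6-tagged, Hi5-expressed, ~200 ng/mL) preincubated with compound 15 min at 22 °C, then reacted 60 min at 22 °C with 10 μM ATP and 1 μM biotinylated peptide substrate, pH 7.5. EDTA stop; TR-FRET 665/620 ratio; IC50 from 4-parameter fit, 11 concentrations in duplicate.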

T1 sequence (O43683 704-1085): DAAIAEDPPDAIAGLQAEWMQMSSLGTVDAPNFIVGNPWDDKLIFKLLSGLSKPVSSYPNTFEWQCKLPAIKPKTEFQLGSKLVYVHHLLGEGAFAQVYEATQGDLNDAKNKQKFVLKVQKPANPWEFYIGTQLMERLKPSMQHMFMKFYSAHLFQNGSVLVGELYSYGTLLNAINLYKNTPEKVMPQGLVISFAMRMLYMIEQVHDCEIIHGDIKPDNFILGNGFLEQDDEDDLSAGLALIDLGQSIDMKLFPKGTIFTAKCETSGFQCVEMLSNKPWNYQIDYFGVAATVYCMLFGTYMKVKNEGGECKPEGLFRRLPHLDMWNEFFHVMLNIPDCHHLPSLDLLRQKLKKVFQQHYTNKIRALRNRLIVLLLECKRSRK

Row | Structure (SMILES) | IC50
1 | CN1CCN(C(=O)N2CC(=O)c3c([nH]c(-c4ccncc4)c3Nc3ccccc3)C2)CC1 [Example 95, 6-[(4-Methylpiperazin-1-yl)carbonyl]-3-(phenylamino)-2-(pyridin-4-yl)-1,5,6,7-tetrahydro-4H-pyrrolo[2,3-c]pyridin-4-one] | 9 nM
2 | O=C1CN(C(=O)NC2CCOCC2)Cc2[nH]c(-c3ccncc3)c(Nc3ccccc3)c21 [Example 96, 4-Oxo-3-(phenylamino)-2-(pyridin-4-yl)-N-(tetrahydro-2H-pyran-4-yl)-1,4,5,7-tetrahydro-6H-pyrrolo[2,3-c]pyridine-6-carboxamide] | 55 nM
3 | O=C1CN(C(=O)Nc2cccnc2)Cc2[nH]c(-c3ccncc3)c(Nc3ccccc3)c21 [Example 97, 4-Oxo-3-(phenylamino)-N-(pyridin-3-yl)-2-(pyridin-4-yl)-1,4,5,7-tetrahydro-6H-pyrrolo[2,3-c]pyridine-6-carboxamide] | 59 nM
4 | N#CCN1CC(=O)c2c([nH]c(-c3ccncc3)c2Nc2ccccc2)C1 [Example 98, [4-Oxo-3-(phenylamino)-2-(pyridin-4-yl)-1,4,5,7-tetrahydro-6H-pyrolo[2,3-c]pyridin-6-yl]acetonitrile] | 16 nM
5 | Cc1cnccc1-c1[nH]c2c(c1Nc1ccccc1)C(=O)CN(C(=O)OC(C)(C)C)C2 [Example 99, tert-Butyl 2-(3-methylpyridin-4-yl)-4-oxo-3-(phenylamino)-1,4,5,7-tetrahydro-6H-pyrrolo[2,3-c]pyridine-6-carboxylate] | 205 nM
6 | CC(C)(C)OC(=O)N1CC(=O)c2c([nH]c(-c3ccncc3Br)c2Nc2ccccc2)C1 [Example 100, tert-Butyl 2-(3-bromopyridin-4-yl)-4-oxo-3-(phenylamino)-1,4,5,7-tetrahydro-6H-pyrrolo[2,3-c]pyridine-6-carboxylate] | 26 nM
7 | O=C1CNCc2[nH]c(-c3ccncc3F)c(Nc3ccccc3)c21 [Example 101, 2-(3-Fluoropyridin-4-yl)-3-(phenylamino)-1,5,6,7-tetrahydro-4H-pyrrolo[2,3-c]pyridin-4-one] | 43 nM
8 | COc1cnccc1-c1[nH]c2c(c1Nc1ccccc1)C(=O)CN(C(=O)OC(C)(C)C)C2 [Example 102, tert-Butyl 2-(3-methoxypyridin-4-yl)-4-oxo-3-(phenylamino)-1,4,5,7-tetrahydro-6H-pyrrolo[2,3-c]pyridine-6-carboxylate] | 17 nM
9 | COc1cnccc1-c1[nH]c2c(c1Nc1ccccc1)C(=O)CNC2 [Example 103, 2-(3-Methoxypyridin-4-yl)-3-(phenylamino)-1,5,6,7-tetrahydro-4H-pyrrolo[2,3-c]pyridin-4-one] | 138 nM
10 | COC(=O)N1CC(=O)c2c([nH]c(-c3ccncc3OC)c2Nc2ccccc2)C1 [Example 104, Methyl 2-(3-methoxypyridin-4-yl)-4-oxo-3-(phenylamino)-1,4,5,7-tetrahydro-6H-pyrrolo[2,3-c]pyridine-6-carboxylate] | 9 nM
11 | COc1cnccc1-c1[nH]c2c(c1Nc1ccccc1)C(=O)CN(C(C)=O)C2 [Example 105, 6-Acetyl-2-(3-methoxypyridin-4-yl)-3-(phenylamino)-1,5,6,7-tetrahydro-4H-pyrrolo[2,3-c]pyridin-4-one] | 12 nM
12 | COc1cnccc1-c1[nH]c2c(c1Nc1ccccc1)C(=O)CN(C(=O)C1CC1)C2 [Example 108, 6-(Cyclopropylcarbonyl)-2-(3-methoxypyridin-4-yl)-3-(phenylamino)-1,5,6,7-tetrahydro-4H-pyrrolo[2,3-c]pyridin-4-one] | 8 nM
13 | COc1cnccc1-c1[nH]c2c(c1Nc1ccccc1)C(=O)CN(S(=O)(=O)CCC(F)(F)F)C2 [Example 111, 2-(3-Methoxypyridin-4-yl)-3-(phenylamino)-6-[(3,3,3-trifluoropropyl)sulfonyl]-1,5,6,7-tetrahydro-4H-pyrrolo[2,3-c]pyridin-4-one] | 7 nM
14 | CC(=O)Nc1cc(-c2[nH]c3c(c2Nc2ccccc2)C(=O)CN(C(C)=O)C3)ccn1 [Example 112, N-{4-[6-Acetyl-4-oxo-3-(phenylamino)-4,5,6,7-tetrahydro-1H-pyrrolo[2,3-c]pyridin-2-yl]pyridin-2-yl}acetamide] | 9 nM
15 | CC(=O)Nc1cc(-c2[nH]c3c(c2Nc2ccccc2)C(=O)CN(C(=O)c2cnc[nH]2)C3)ccn1 [Example 113, N-{4-[6-(1H-Imidazol-5-ylcarbonyl)-4-oxo-3-(phenylamino)-4,5,6,7-tetrahydro-1H-pyrrolo[2,3-c]pyridin-2-yl]pyridin-2-yl}acetamide] | 34 nM
16 | CC(=O)Nc1cc(-c2[nH]c3c(c2Nc2ccccc2)C(=O)CN(C(=O)c2ccccn2)C3)ccn1 [Example 114, N-{4-[4-Oxo-3-(phenylamino)-6-(pyridin-2-ylcarbonyl)-4,5,6,7-tetrahydro-1H-pyrrolo[2,3-c]pyridin-2-yl]pyridin-2-yl}acetamide] | 63 nM
17 | CC(=O)Nc1cc(-c2[nH]c3c(c2Nc2ccccc2)C(=O)CN(C(=O)c2cccnc2)C3)ccn1 [Example 115, N-{4-[4-Oxo-3-(phenylamino)-6-(pyridin-3-ylcarbonyl)-4,5,6,7-tetrahydro-1H-pyrrolo[2,3-c]pyridin-2-yl]pyridin-2-yl}acetamide] | 45 nM
18 | CC(=O)Nc1cc(-c2[nH]c3c(c2Nc2ccccc2)C(=O)CN(C(=O)c2ccncc2)C3)ccn1 [Example 116, N-{4-[4-Oxo-3-(phenylamino)-6-(pyridin-4-ylcarbonyl)-4,5,6,7-tetrahydro-1H-pyrrolo[2,3-c]pyridin-2-yl]pyridin-2-yl}acetamide] | 26 nM
19 | CC(=O)Nc1cc(-c2[nH]c3c(c2Nc2ccccc2)C(=O)CN(S(=O)(=O)c2cnc[nH]2)C3)ccn1 [Example 117, N-{4-[6-(1H-Imidazol-5-ylsulfonyl)-4-oxo-3-(phenylamino)-4,5,6,7-tetrahydro-1H-pyrrolo[2,3-c]pyridin-2-yl]pyridin-2-yl}acetamide] | 9 nM
20 | CC(=O)Nc1cc(-c2[nH]c3c(c2Nc2ccccc2)C(=O)CN(C(=O)c2cn(C)cn2)C3)ccn1 [Example 118, N-(4-{6-[(1-Methyl-1H-imidazol-4-yl)carbonyl]-4-oxo-3-(phenylamino)-4,5,6,7-tetrahydro-1H-pyrrolo[2,3-c]pyridin-2-yl}pyridin-2-yl)acetamide] | 149 nM
21 | CC(C)(C)OC(=O)N1CC(=O)c2c([nH]c(-c3ccnc(NC(=O)C(C)(C)F)c3)c2Nc2ccccc2)C1 [Example 119, tert-Butyl 2-{2-[(2-fluoro-2-methylpropanoyl)amino]pyridin-4-yl}-4-oxo-3-(phenylamino)-1,4,5,7-tetrahydro-6H-pyrrolo[2,3-c]pyridine-6-carboxylate] | 42 nM

Further molecules by falling IC50, results first:

Row | IC50 | Structure (SMILES)
22 | 7 nM | COc1cnccc1-c1[nH]c2c(c1Nc1ccccc1)C(=O)CN(S(=O)(=O)C(C)C)C2 [Example 109, 2-(3-Methoxypyridin-4-yl)-3-(phenylamino)-6-(propan-2-ylsulfonyl)-1,5,6,7-tetrahydro-4H-pyrrolo[2,3-c]pyridin-4-one]
23 | 6 nM | COc1cnccc1-c1[nH]c2c(c1Nc1ccccc1)C(=O)CN(C(=O)C(C)(C)C)C2 [Example 106, 6-(2,2-Dimethylpropanoyl)-2(3-methoxypyridin-4-yl)-3-(phenylamino)-1,5,6,7-tetrahydro-4H-pyrrolo[2,3-c]pyridin-4-one]
24 | 6 nM | COc1cnccc1-c1[nH]c2c(c1Nc1ccccc1)C(=O)CN(S(C)(=O)=O)C2 [Example 107, 2-(3-Methoxypyridin-4-yl)-6(methylsulfonyl)-3-(phenylamino)-1,5,6,7-tetrahydro-4H-pyrrolo[2,3-c]pyridin-4-one]
25 | 6 nM | COc1cnccc1-c1[nH]c2c(c1Nc1ccccc1)C(=O)CN(S(=O)(=O)C(F)F)C2 [Example 110, 6-[(Difluoromethyl)sulfonyl]-2-(3-methoxypyridin-4-yl)-3-(phenylamino)-1,5,6,7-tetrahydro-4H-pyrrolo[2,3-c]pyridin-4-one]
26 | 6 nM | CC(C)(C)OC(=O)N1CC(=O)c2c([nH]c(-c3ccnc(NC(=O)c4cncs4)c3)c2Nc2ccccc2)C1 [Example 122, tert-Butyl 4-oxo-3-(phenylamino)-2-{2-[(1,3-thiazol-5-ylcarbonyl)amino]pyridin-4-yl}-1,4,5,7-tetrahydro-6H-pyrrolo[2,3-c]pyridine-6-carboxylate]
27 | 4 nM | O=C1CN(C(=O)N2CCCC2)Cc2[nH]c(-c3ccncc3)c(Nc3ccccc3)c21 [Example 92, 3-(phenylamino)-2-(pyridin-4-yl)-6-(pyrrolidin-1-ylcarbonyl)-1,5,6,7-tetrahydro-4H-pyrrolo[2,3-c]pyridin-4-one]
28 | 4 nM | O=C1CN(C(=O)N2CCCCC2)Cc2[nH]c(-c3ccncc3)c(Nc3ccccc3)c21 [Example 93, 3-(phenylamino)-6-(piperidin-1-ylcarbonyl)-2-(pyridin-4-yl)-1,5,6,7-tetrahydro-4H-pyrrolo[2,3-c]pyridin-4-one]
29 | 4 nM | CC(=O)Nc1cc(-c2[nH]c3c(c2Nc2ccccc2)C(=O)CN(C(=O)N(C)C)C3)ccn1 [Example 124, 2-(2-Acetamidopyridin-4-yl)-3-anilino-N,N-dimethyl-4-oxo-1,4,5,7-tetrahydro-6H-pyrrolo[2,3-c]pyridine-6-carboxamide]
30 | 3 nM | O=C1CN(C(=O)N2CCOCC2)Cc2[nH]c(-c3ccncc3)c(Nc3ccccc3)c21 [Example 94, 6-(Morpholin-4-ylcarbonyl)-3-(phenylamino)-2-(pyridin-4-yl)-1,5,6,7-tetrahydro-4H-pyrrolo[2,3-c]pyridin-4-one]
31 | 3 nM | O=C1CN(S(=O)(=O)CCO)Cc2[nH]c(-c3ccncc3)c(Nc3ccccc3)c21 [Example 123, 3-Anilino-6-[(2-hydroxyethyl)sulfonyl]-2-(pyridin-4-yl)-1,5,6,7-tetrahydro-4H-pyrrolo[2,3-c]pyridin-4-one]
